In ChEMBL document CHEMBL1201862, “PubChem BioAssay data set” (2004):
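Tested at 5 concentrations; 48 h exposure; 96-well plates; endpoints linearly interpolated, else capped at highest concentration. At the GI50, growth is halved.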 Calls of active or inactive are those of the source. Cut-off read from the data, not from the text of the source: active = GI50 up to about 1.1 µM and inactive = higher.

How the values were obtained:
Test in all cases: DTP human tumour cell line panel, 48 h
[1] = test system: IGROV-1
[2] = test system: SR
[3] = test system: RXF 393
[4] = test system: DU-145
[5] = test system: MDA-N
[6] = test system: OVCAR-3
[7] = test system: HT-29
[8] = test system: U-251
[9] = test system: A498
[10] = test system: PC-3
[11] = test system: CAKI-1
[12] = test system: SK-MEL-28
[13] = test system: HCT-116
[14] = test system: SK-MEL-2
[15] = test system: NCI-H460
[16] = test system: HCT-15
[17] = test system: SK-MEL-5
[18] = test system: NCI-H23
[19] = test system: MCF7
[20] = test system: NCI/ADR-RES
[21] = test system: SK-OV-3
[22] = test system: RPMI-8226
[23] = test system: Hs-578T
[24] = test system: OVCAR-8
[25] = test system: SF-268
[26] = test system: UO-31
[27] = test system: ACHN
[28] = test system: SW-620
[29] = test system: CCRF-CEM
[30] = test system: OVCAR-5
[31] = test system: HOP-62
[32] = test system: A549
[33] = test system: HL-60
[34] = test system: SNB-75
[35] = test system: K562
[36] = test system: UACC-257
[37] = test system: SF-295
[38] = test system: EKVX
[39] = test system: NCI-H522
[40] = test system: 786-0
[41] = test system: Malme-3M
[42] = test system: SNB-19
[43] = test system: OVCAR-4
[44] = test system: TK-10
[45] = test system: MDA-MB-435
[46] = test system: HOP-92
[47] = test system: SF-539
[48] = test system: MDA-MB-231
[49] = test system: M14
[50] = test system: LOX IMVI
[51] = test system: MOLT-4
[52] = test system: HCC 2998
[53] = test system: T47D
[54] = test system: COLO 205
[55] = test system: NCI-H226
[56] = test system: SN12C
[57] = test system: KM12
[58] = test system: UACC-62

Cc1ccc(SCC(CSCCO)OCn2cnc3c2N=C(N)NC32OCCO2)cc1 (stereo unspecified)
GI50 [1]: > 100 µM (inactive)
GI50 [2]: > 100 µM (inactive)
GI50 [3]: > 100 µM (inactive)
GI50 [4]: > 100 µM (inactive)
GI50 [5]: > 100 µM (inactive)
GI50 [6]: > 100 µM (inactive)
GI50 [7]: > 100 µM (inactive)
GI50 [8]: > 100 µM (inactive)
GI50 [9]: > 100 µM (inactive)
GI50 [10]: > 100 µM (inactive)
GI50 [11]: > 100 µM (inactive)
GI50 [12]: > 100 µM (inactive)
GI50 [13]: > 100 µM (inactive)
GI50 [14]: > 100 µM (inactive)
GI50 [15]: > 100 µM (inactive)
GI50 [16]: > 100 µM
GI50 [17]: > 100 µM (inactive)
GI50 [18]: > 100 µM (inactive)
GI50 [19]: > 100 µM (inactive)
GI50 [20]: > 100 µM (inactive)
GI50 [21]: > 100 µM (inactive)
GI50 [22]: > 100 µM (inactive)
GI50 [23]: > 100 µM (inactive)
GI50 [24]: > 100 µM (inactive)
GI50 [25]: > 100 µM (inactive)
GI50 [26]: > 100 µM (inactive)
GI50 [27]: > 100 µM (inactive)
GI50 [28]: > 100 µM (inactive)
GI50 [29]: > 100 µM (inactive)
GI50 [30]: > 100 µM (inactive)
GI50 [31]: > 100 µM (inactive)
GI50 [32]: > 100 µM (inactive)
GI50 [33]: > 100 µM (inactive)
GI50 [34]: > 100 µM (inactive)
GI50 [35]: > 100 µM (inactive)
GI50 [36]: > 100 µM (inactive)
GI50 [37]: > 100 µM (inactive)
GI50 [38]: 83 µM (inactive)
GI50 [39]: > 100 µM (inactive)
GI50 [40]: > 100 µM (inactive)
GI50 [41]: > 100 µM (inactive)
GI50 [42]: > 100 µM (inactive)
GI50 [43]: > 100 µM (inactive)
GI50 [44]: > 100 µM (inactive)
GI50 [45]: > 100 µM (inactive)
GI50 [46]: > 100 µM (inactive)
GI50 [47]: > 100 µM (inactive)
GI50 [48]: > 100 µM (inactive)
GI50 [49]: > 100 µM (inactive)
GI50 [50]: > 100 µM (inactive)
GI50 [51]: > 100 µM (inactive)
GI50 [52]: > 100 µM (inactive)
GI50 [53]: > 100 µM (inactive)

CC(C)(C)[Si](C)(C)OCC1OC(n2ccc(=O)[nH]c2=O)C(O[Si](C)(C)C(C)(C)C)/C1=C/C#N (stereo unspecified)
GI50 [1]: 40.8 µM (inactive)
GI50 [2]: 3.5 µM (inactive)
GI50 [3]: 2.91 µM (inactive)
GI50 [4]: 5.48 µM (inactive)
GI50 [5]: 4.76 µM (inactive)
GI50 [6]: 7.29 µM (inactive)
GI50 [7]: 3.88 µM (inactive)
GI50 [8]: 4.21 µM (inactive)
GI50 [9]: 10 µM (inactive)
GI50 [10]: 2.88 µM (inactive)
GI50 [11]: 8.43 µM (inactive)
GI50 [12]: 1.49 µM (inactive)
GI50 [13]: 3.36 µM (inactive)
GI50 [14]: 0.757 µM (active)
GI50 [15]: 4.41 µM (inactive)
GI50 [16]: 4.9 µM
GI50 [17]: 3.07 µM (inactive)
GI50 [18]: 5.89 µM (inactive)
GI50 [54]: 2.61 µM (inactive)
GI50 [19]: 3.96 µM (inactive)
GI50 [20]: 4.01 µM (inactive)
GI50 [21]: 1.79 µM (inactive)
GI50 [22]: 3.71 µM (inactive)
GI50 [23]: 5.73 µM (inactive)
GI50 [24]: 6.65 µM (inactive)
GI50 [25]: 6.56 µM (inactive)
GI50 [26]: 4.89 µM (inactive)
GI50 [27]: 5.7 µM (inactive)
GI50 [55]: 16.8 µM (inactive)
GI50 [28]: 0.838 µM (active)
GI50 [29]: 4.23 µM (inactive)
GI50 [56]: 3.78 µM (inactive)
GI50 [30]: 20.4 µM (inactive)
GI50 [31]: 12.5 µM (inactive)
GI50 [32]: 4.18 µM (inactive)
GI50 [33]: 2.86 µM (inactive)
GI50 [34]: 46.6 µM (inactive)
GI50 [35]: 1.76 µM (inactive)
GI50 [36]: 7.19 µM (inactive)
GI50 [37]: 0.67 µM (active)
GI50 [38]: 24.4 µM (inactive)
GI50 [39]: 3.67 µM (inactive)
GI50 [57]: 3.66 µM (inactive)
GI50 [40]: 4.37 µM (inactive)
GI50 [41]: 12.8 µM (inactive)
GI50 [42]: 31.8 µM (inactive)
GI50 [43]: > 29.2 µM (inactive)
GI50 [44]: 12.7 µM (inactive)
GI50 [45]: 3.94 µM (inactive)
GI50 [46]: 5.93 µM (inactive)
GI50 [47]: 5.14 µM (inactive)
GI50 [48]: 8.41 µM (inactive)
GI50 [49]: 10.9 µM (inactive)
GI50 [50]: 5 µM (inactive)
GI50 [51]: 2.72 µM (inactive)
GI50 [52]: 5.48 µM (inactive)
GI50 [53]: 3.93 µM (inactive)
GI50 [58]: 1.07 µM (active)
